In US20070142392A1, “Uses of rifamycins” (ActivBiotics, Inc., priority 2005, published 2007):
In brackets after ≈: the same amount, converted by molar mass.

How the values were obtained:
S. pneumo. = experiment: MIC values, S. pneumo. (Tables 1-4); format: cell-based
E. faecalis = experiment: MIC values, E. faecalis (Tables 1-4); format: cell-based
H. flu = format: cell-based
S. aureus [1] = experiment: MIC values, S. aureus (Tables 1-4); format: cell-based
E. coli = experiment: MIC values, E. coli (Tables 1-4); format: cell-based
S. aureus [2] = experiment: minimal bactericidal concentration in the stationary growth phase (MBCstat); format: cell-based; details: Staphylococcus aureus, 1% glucose PBS pH 7.4 with 4% Muller Hinton Broth
Protocol: FIG. 2A is a schematic illustration showing the peak drug concentration of Compound 86 (1.13 μg/ml) in cage fluid from non-infected animals after single dose of 12.5 mg/kg. […] In this medium, bacterial counts remained stable in the absence of antibacterial agents for >36 hours.
In this medium, bacterial counts remained stable in the absence of antibacterial agents for >36 hours.
The minimal bactericidal concentration in the stationary growth phase (MBCstat) was determined by using overnight bacterial cultures which were centrifuged and resuspended in medium containing 1% glucose supplemented phosphate buffered saline (PBS) pH 7.4 with 4% Muller Hinton Broth (Zimmerli et al., J Antimicrob. Chemother. 33:959-967 (1994)). In this medium, bacterial counts remained stable in the absence of antibacterial agents for >36 hours.

in vivo = details: albino, guinea pig, ip, 5 mg/kg
Description: For pharmacokinetic studies, non-infected animals were used. […] Teflon tissue cages were implanted into the flanks of guinea pigs. For pharmacokinetic studies, non-infected animals were used.

Tmax (in vivo)	concentration at 12 h (in vivo)	SMILES	MIC S. pneumo. (S. pneumo.)	MIC E. faecalis (E. faecalis)	MIC H. flu (H. flu)	MIC S. aureus (S. aureus [1])	MIC E. coli (E. coli)	MBC (S. aureus [2])
–	–	COC1C=COC2(C)Oc3c(C)c(O)c4c(=O)c(c5oc6cc(N7CC8CCCNC8C7)cc(O)c6nc-5c4c3C2=O)NC(=O)C(C)=CC=CC(C)C(O)C(C)C(O)C(C)C(OC(C)=O)C1C (stereo not drawn) [Compound 143]	0.25 ng/mL (≈ 0.27 nM)	120 ng/mL (≈ 130 nM)	250 ng/mL (≈ 270 nM)	4 ng/mL (≈ 4.32 nM)	8000 ng/mL (≈ 8650 nM)	–
–	–	COC1C=COC2(C)Oc3c(C)c(O)c4c(=O)c(c5oc6cc(N7CC8CCCNC8C7)cc(O)c6nc-5c4c3C2=O)NC(=O)C(C)=CC=CC(C)C(O)C(C)C(O)C(C)C(O)C1C (stereo not drawn) [Compound 144]	2 ng/mL (≈ 2.26 nM)	250 ng/mL (≈ 283 nM)	1000 ng/mL (≈ 1130 nM)	30 ng/mL (≈ 34 nM)	>8000 ng/mL	–
–	–	CO[C@H]1/C=C/O[C@@]2(C)Oc3c(C)c(O)c4c(=O)c(c5oc6cc(N7CC8CCC(C7)N8)cc(O)c6nc-5c4c3C2=O)NC(=O)/C(C)=C\C=C\[C@H](C)[C@H](O)[C@@H](C)[C@@H](O)[C@@H](C)[C@H](OC(C)=O)[C@@H]1C [Compound 145]	0.12 ng/mL (≈ 0.132 nM)	1000 ng/mL (≈ 1100 nM)	2000 ng/mL (≈ 2200 nM)	8 ng/mL (≈ 8.78 nM)	>8000 ng/mL	–
–	–	CO[C@H]1/C=C/O[C@@]2(C)Oc3c(C)c(O)c4c(=O)c(c5oc6cc(N7CC8CCC(C7)N8)cc(O)c6nc-5c4c3C2=O)NC(=O)/C(C)=C\C=C\[C@H](C)[C@H](O)[C@@H](C)[C@@H](O)[C@@H](C)[C@H](O)[C@@H]1C [Compound 146]	1 ng/mL (≈ 1.15 nM)	120 ng/mL (≈ 138 nM)	250 ng/mL (≈ 288 nM)	15 ng/mL (≈ 17.3 nM)	4000 ng/mL (≈ 4600 nM)	–
–	–	CCOC(=O)N1CCCC2CN(c3cc(O)c4nc5c6c7c8c(C)c(O)c6c(=O)c(c-5oc4c3)NC(=O)C(C)=CC=CC(C)C(O)C(C)C(O)C(C)C(OC(C)=O)C(C)C(OC)C=COC(C)(O8)C7=O)CC21 (stereo not drawn) [Compound 147]	8 ng/mL (≈ 8.02 nM)	1000 ng/mL (≈ 1000 nM)	500 ng/mL (≈ 501 nM)	60 ng/mL (≈ 60.2 nM)	>8000 ng/mL	–
–	–	CCOC(=O)N1CCCC2CN(c3cc(O)c4nc5c6c7c8c(C)c(O)c6c(=O)c(c-5oc4c3)NC(=O)C(C)=CC=CC(C)C(O)C(C)C(O)C(C)C(O)C(C)C(OC)C=COC(C)(O8)C7=O)CC21 (stereo not drawn) [Compound 148]	0.12 ng/mL (≈ 0.126 nM)	2000 ng/mL (≈ 2090 nM)	500 ng/mL (≈ 524 nM)	8 ng/mL (≈ 8.38 nM)	8000 ng/mL (≈ 8380 nM)	–
–	–	COC1C=COC2(C)Oc3c(C)c(O)c4c(=O)c(c5oc6cc(N7CC8CCCN(C(C)=O)C8C7)cc(O)c6nc-5c4c3C2=O)NC(=O)C(C)=CC=CC(C)C(O)C(C)C(O)C(C)C(OC(C)=O)C1C (stereo not drawn) [Compound 149]	2 ng/mL (≈ 2.07 nM)	1000 ng/mL (≈ 1030 nM)	250 ng/mL (≈ 259 nM)	8 ng/mL (≈ 8.27 nM)	>8000 ng/mL	–
–	–	COC1C=COC2(C)Oc3c(C)c(O)c4c(=O)c(c5oc6cc(N7CC8CCCN(C(C)=O)C8C7)cc(O)c6nc-5c4c3C2=O)NC(=O)C(C)=CC=CC(C)C(O)C(C)C(O)C(C)C(O)C1C (stereo not drawn) [Compound 150]	0.06 ng/mL (≈ 0.0649 nM)	2000 ng/mL (≈ 2160 nM)	500 ng/mL (≈ 541 nM)	4 ng/mL (≈ 4.32 nM)	>8000 ng/mL	–
–	–	CO[C@H]1/C=C/O[C@@]2(C)Oc3c(C)c(O)c4c(=O)c(c5oc6cc(N7CC8CCC(C7)N8C)cc(O)c6nc-5c4c3C2=O)NC(=O)/C(C)=C\C=C\[C@H](C)[C@H](O)[C@@H](C)[C@@H](O)[C@@H](C)[C@H](OC(C)=O)[C@@H]1C [Compound 151]	–	–	–	–	–	156 ng/mL (≈ 169 nM)
–	–	CO[C@H]1/C=C/O[C@@]2(C)Oc3c(C)c(O)c4c(=O)c(c5oc6cc(N7CC(N(C)C)C7)cc(O)c6nc-5c4c3C2=O)NC(=O)/C(C)=C\C=C\[C@H](C)[C@H](O)[C@@H](C)[C@@H](O)[C@@H](C)[C@H](OC(C)=O)[C@@H]1C [Compound 152]	–	–	–	–	–	469 ng/mL (≈ 522 nM)
2 h	10 ± 10 ng/mL	C[C@H]1COc2c(N3CCN(C)CC3)c(F)cc3c(=O)c(C(=O)O)cn1c23 [Levofloxacin, levofloxacin]	–	–	–	–	–	40000 ng/mL (≈ 111000 nM)
